From PMC11335262 (Cellular and Molecular Life Sciences: CMLS, 2024)
Like-named read-outs stand apart in the source and are kept apart here.

Tests used:
[1] = target: α9α10E287Q (Rattus norvegicus, UniProt P43144+Q9JLB5, E287Q); assay type: cell-based
[2] = target: α9α10^α9TM2TM3loop (Rattus norvegicus, UniProt P43144+Q9JLB5, A292S/P291A/S288I/S294N); assay type: cell-based; conditions: for ACh response, % of response at […] Ca^2+: Vhold -90
[3] = target: α9α10^α9Nt–TM2 (Rattus norvegicus, UniProt P43144+Q9JLB5, A103S/A128E/A130V/A141L/A146S/A160Y/A165S/A191G/A194S/A236S/A237S/A238F/A257S/A39E/A49E/A97Q/C241V/D100R/D263A/E60Q/E85T/F249L/G169N/G178N/G188L/G99D/H138Y/H177Y/H180N/H259Y/H92T/I284M/I67K/K96D/L182V/L205H/L214I/L245I/L252F/L278M/L285V/L78A/N199D/N40D/P126S/P127S/P186N/P95R/Q125E/Q53A/R109D/R143T/R151K/R155V/R167Q/R185F/R187A/R203E/R210V/R211K/R212N/R233K/R35S/S129P/S131N/S159T/S192D/T124D/T189D/T215S/T42S/T54V/T87H/V136L/V142I/V184I/V197I/V240I/V274I/V75I); assay type: cell-based; conditions: 30 µM ACh; for ACh response, % of response at […] Ca^2+: Vhold -90
[4] = target: α9α10^α9extra (Rattus norvegicus, UniProt P43144+Q9JLB5, A264D/A308T/A312F/A328P/E329N/F253L/F325Y/H335A/I246L/I275V/I304M/I310V/I323L/L250F/L309M/M279L/M285I/M319L/R331H/S258A/V286L/V320I/Y260H); assay type: cell-based; conditions: for ACh response, % of response at […] Ca^2+: Vhold -90
[5] = target: α9α10E71Q (Rattus norvegicus, UniProt P43144+Q9JLB5, E71Q); assay type: cell-based
[6] = target: α9α10^α9Nt–TM2TM3loop (Rattus norvegicus, UniProt P43144+Q9JLB5); assay type: cell-based; conditions: for ACh response, % of response at […] Ca^2+: Vhold -90
[7] = target: α9α10^α9Nt (Rattus norvegicus, UniProt P43144+Q9JLB5, A103S/A128E/A130V/A141L/A146S/A160Y/A165S/A191G/A194S/A39E/A49E/A97Q/D100R/E60Q/E85T/G169N/G178N/G188L/G99D/H138Y/H177Y/H180N/H92T/I67K/K96D/L182V/L205H/L214I/L78A/N199D/N40D/P126S/P127S/P186N/P95R/Q125E/Q53A/R109D/R143T/R151K/R155V/R167Q/R185F/R187A/R203E/R210V/R211K/R212N/R233K/R35S/S129P/S131N/S159T/S192D/T124D/T189D/T215S/T42S/T54V/T87H/V136L/V142I/V184I/V197I/V75I); assay type: cell-based; conditions: 10 µM ACh; for ACh response, % of response at […] Ca^2+: Vhold -90
[8] = target: α9α10^α9Nt–TM1TM2loop (Rattus norvegicus, UniProt P43144+Q9JLB5, A103S/A128E/A130V/A141L/A146S/A160Y/A165S/A191G/A194S/A236S/A237S/A238F/A257S/A39E/A49E/A97Q/C241V/D100R/D263A/E60Q/E85T/F249L/G169N/G178N/G188L/G99D/H138Y/H177Y/H180N/H259Y/H92T/I67K/K96D/L182V/L205H/L214I/L245I/L252F/L78A/N199D/N40D/P126S/P127S/P186N/P95R/Q125E/Q53A/R109D/R143T/R151K/R155V/R167Q/R185F/R187A/R203E/R210V/R211K/R212N/R233K/R35S/S129P/S131N/S159T/S192D/T124D/T189D/T215S/T42S/T54V/T87H/V136L/V142I/V184I/V197I/V240I/V75I); assay type: cell-based; conditions: 40 µM ACh; for ACh response, % of response at […] Ca^2+: Vhold -90
[9] = target: α9α10 nAChR (Rattus norvegicus, UniProt P43144+Q9JLB5); assay type: cell-based; conditions: 10 µM ACh; for ACh response, % of responses at […] Ca^2+: Vhold -90
[10] = system: homomeric α9 nAChR; conditions: cited from earlier work

## [Ca+2] [Ca^2+, Calcium]
[1]; 20 µM ACh
  modulation of ACh-evoked responses by extracellular Ca^2+ (in words): not potentiated by Ca^2+
[1]; 3 mM Ca^2+, 20 µM ACh
  ACh response, % of response at […] Ca^2+: 67.6 ± 5.6%
[1]; +40 mV, 20 µM ACh
  3 / 0 Ca^2+ ratio of response: 0.48 ± 0.04
[1]; -90 mV, 20 µM ACh
  3 / 0 Ca^2+ ratio of response: 0.26 ± 0.02
[1]; read-out: Ca^2+ IC50, block of responses to 20 µM ACh
  IC50: 300 ± 100 µM
[1]; zero Ca^2+, 20 µM ACh
  ACh response, % of response at […] Ca^2+: 320.7 ± 97.4%
[2]; 50 µM ACh
  modulation of ACh-evoked responses by extracellular Ca^2+ (in words): not potentiated by extracellular Ca^2+, but instead blocked by this ion
[2]; 3 mM Ca^2+, 50 µM ACh
  ACh response, % of response at […] Ca^2+: 71.3 ± 5.2%
[2]; 3 mM Ca^2+, sub-EC50 25 µM ACh
  ACh response, % of response at […] Ca^2+: 46.3 ± 20.9%
[2]; +40 mV, 50 µM ACh
  3 / 0 Ca^2+ ratio of response: 0.74 ± 0.14
[2]; -90 mV, 50 µM ACh
  3 / 0 Ca^2+ ratio of response: 0.14 ± 0.02
[2]; zero Ca^2+, 50 µM ACh
  ACh response, % of response at […] Ca^2+: 401.0 ± 103.4%
[2]; zero Ca^2+, sub-EC50 25 µM ACh
  ACh response, % of response at […] Ca^2+: 668.7 ± 340.2%
[3]
  modulation of ACh-evoked responses by extracellular Ca^2+ (in words): potentiated by Ca^2+ up to 0.2 mM and blocked by higher concentrations
[3]; 0.2 mM Ca^2+
  ACh response, % of response at […] Ca^2+: 322.0 ± 40.0%
[3]; 3 mM Ca^2+
  ACh response, % of response at […] Ca^2+: 69.5 ± 7.6%
[3]; +40 mV
  0.2 / 0 Ca^2+ ratio of response amplitudes: 2.8 ± 0.4
[3]; -90 mV
  0.2 / 0 Ca^2+ ratio of response amplitudes: 4.1 ± 0.2
[3]; nominally zero Ca^2+
  ACh response, % of response at […] Ca^2+: 132.4 ± 27.5%
[4]; 10 µM ACh
  modulation of ACh-evoked responses by extracellular Ca^2+ (in words): not potentiated by Ca^2+, and only blocked by increasing Ca^2+ concentrations
[4]; 3 mM Ca^2+, 10 µM ACh
  ACh response, % of response at […] Ca^2+: 72.3 ± 5.3%
[4]; +40 mV, 10 µM ACh
  3 / 0 Ca^2+ ratio of response: 0.60 ± 0.08
[4]; -90 mV, 10 µM ACh
  3 / 0 Ca^2+ ratio of response: 0.20 ± 0.05
[4]; read-out: Ca^2+ IC50, block of responses to 10 µM ACh, -90 mV
  IC50: 700 ± 200 µM
[4]; zero Ca^2+, 10 µM ACh
  ACh response, % of response at […] Ca^2+: 217.3 ± 6.3%
[5]; 100 µM ACh
  modulation of ACh-evoked responses by extracellular Ca^2+ (in words): not potentiated by Ca^2+
[5]; 3 mM Ca^2+, 100 µM ACh
  ACh response, % of response at […] Ca^2+: 64.8 ± 2.7%
[5]; +40 mV, 100 µM ACh
  3 / 0 Ca^2+ ratio of response: 1.05 ± 0.29
[5]; -90 mV, 100 µM ACh
  3 / 0 Ca^2+ ratio of response: 0.25 ± 0.05
[5]; read-out: Ca^2+ IC50, block of responses to 100 µM ACh
  IC50: 800 ± 100 µM
[5]; zero Ca^2+, 100 µM ACh
  ACh response, % of response at […] Ca^2+: 211.0 ± 35.6%
[6]; 5 µM ACh
  modulation of ACh-evoked responses by extracellular Ca^2+ (in words): only blocked by increasing Ca^2+ concentrations
[6]; 3 mM Ca^2+, 5 µM ACh
  ACh response, % of response at […] Ca^2+: 108.1 ± 10.7%
[6]; +40 mV, 5 µM ACh
  3 / 0 Ca^2+ ratio of response: 1.2 ± 0.3
[6]; -90 mV, 5 µM ACh
  3 / 0 Ca^2+ ratio of response: 0.20 ± 0.03
[6]; read-out: Ca^2+ IC50, block of responses to 5 µM ACh, -90 mV
  IC50: 500 ± 100 µM
[6]; zero Ca^2+, 5 µM ACh
  ACh response, % of response at […] Ca^2+: 611.3 ± 91.2%
[7]
  modulation of ACh-evoked responses by extracellular Ca^2+ (in words): potentiated by Ca^2+ up to 0.2 mM and blocked by higher concentrations
[7]; 0.2 mM Ca^2+
  ACh response, % of response at […] Ca^2+: 225.8 ± 18.9%
[7]; 3 mM Ca^2+
  ACh response, % of response at […] Ca^2+: 64.9 ± 5.9%
[7]; +40 mV
  0.2 / 0 Ca^2+ ratio of response amplitudes: 2.5 ± 0.3
[7]; -90 mV
  0.2 / 0 Ca^2+ ratio of response amplitudes: 2.1 ± 0.4
[7]; nominally zero Ca^2+
  ACh response, % of response at […] Ca^2+: 115.2 ± 27.3%
[8]
  modulation of ACh-evoked responses by extracellular Ca^2+ (in words): potentiated by Ca^2+ up to 0.2 mM and blocked by higher concentrations
[8]; 0.2 mM Ca^2+
  ACh response, % of response at […] Ca^2+: 358.3 ± 32.4%
[8]; 3 mM Ca^2+
  ACh response, % of response at […] Ca^2+: 73.5 ± 9.3%
[8]; +40 mV
  0.2 / 0 Ca^2+ ratio of response amplitudes: 5.9 ± 2.6
[8]; -90 mV
  0.2 / 0 Ca^2+ ratio of response amplitudes: 5.4 ± 2.4
[8]; nominally zero Ca^2+
  ACh response, % of response at […] Ca^2+: 95.2 ± 18.8%
[9]
  modulation of ACh-evoked responses by extracellular Ca^2+ (in words): potentiated by sub-millimolar Ca^2+ concentrations
[9]; 0.5 mM Ca^2+ (maximum)
  ACh response, % of responses at […] Ca^2+: 142.98 ± 10.12%
[9]; nominally zero Ca^2+
  ACh response, % of responses at […] Ca^2+: 16.79 ± 6.47%
[10]; […] Ca^2+, 100 µM ACh, Vhold -70, homomeric α9
  ACh response amplitude normalized to 0 mM Ca^2+ (Imax): 5.63 ± 0.58%
[10]; rat α9 nAChRs
  modulation of ACh-evoked responses by extracellular Ca^2+ (in words): only blocked by this ion
[10]; read-out: Ca^2+ IC50 (50% of response block), homomeric α9, -70 mV
  IC50: 100 ± 10 µM
